6 molecules from US20240391904A1, “DIHYDROPYRIMIDINE BASED COMPOUND, PREPARATION METHOD THEREFOR AND USE OF THEREOF” (CHENGDU SHIBEIKANG BIOMEDICAL TECHNOLOGY CO., LTD., priority 2021, published 2024) can be followed below.

In one data set the test system is KM mice. Nature of the data set: Mouse cough test (ammonia-induced coughing). Type of data set: in vivo. Particulars: for cough suppressing effect compared with the positive compound / duration of the cough suppression action: 30 mg/kg; for Number of Coughs (time): mice; for reduction in the number of coughs at 3 mg/kg: compared with model group; for duration of the cough suppression action: 30 to 120 min after administration. The text has this: Compounds of Example 1-24 (synthesized in the inventor's laboratory), positive control drug (gefapixant, batch No: 01030-210326-2-1, purchased from Holder Pharmaceuticals), the compound of Comparative Example 1 (synthesized in the inventor's laboratory).
Healthy adult KM mice, half of them are male and half of them are female, 6 per group, weighing about 28-30 g.
Most of the animal coughing models currently reported in the literatures use mechanical, chemical and electrical stimulations to stimulate the nerves and receptors of the animals to trigger coughing. According to the characteristics of the candidate compounds and the existing similar target compounds for reference, the method of concentrated ammonia induction was initially chosen to establish the cough modeling test in mice.
Preparation of 50% ammonia solution: 2.5 ml of ammonia was dissolved in […] of a 0.9% sodium chloride solution for injection and mixed evenly.
Preparation of a solution of the compound of Comparative Example 1: 9 mg of the compound of Comparative Example 1 was weighed and dissolved in 3 ml of a 0.5% CMC-Na solution, and mixed evenly to prepare a 3 mg/ml solution.
Preparation of a solution of the example compounds: 9 mg of the example compound was weighed and dissolved in 3 ml of a 0.5% CMC-Na solution, and mixed evenly to prepare a 3 mg/ml solution.
Grouping: a positive control group, a Comparative Example 1 group, Example 1 group-Example 24 group, and a model group were set up. Six KM mice were taken from each group and administered by gavage; here, the Comparative Example 1 group was given the compound of Comparative Example 1, the positive control group was given the positive control drug (gefapixant, commercially purchased), the Example groups were given the compounds prepared in the corresponding Examples, with each group given one of three dosages: 30 mg/kg, […], and 3 mg/kg; and the model group was given the same volume of 0.5% CMC-Na solution.
30 min, 60 min or 120 min after administration, the mice were placed in a 500 ml beaker with a cotton ball (weight 100±5 mg) containing 0.3 ml of 50% ammonia.
(1) Judgment criteria of coughing: coughing was manifest in contraction of abdominal muscles or chest contraction, with mouth wide opening and a coughing sound.
(2) The number of coughs (times) within 3 min was recorded with a stopwatch, and the data were statistically analyzed by software, with the data in each group shown in mean±standard deviation. A one-way analysis of variance among the groups was conducted, and P<0.05 was considered a difference having a statistical significance.

The target of the next data set is T1, human P2X3 receptor (Homo sapiens, UniProt P56373).
T1 sequence (P56373 1-397): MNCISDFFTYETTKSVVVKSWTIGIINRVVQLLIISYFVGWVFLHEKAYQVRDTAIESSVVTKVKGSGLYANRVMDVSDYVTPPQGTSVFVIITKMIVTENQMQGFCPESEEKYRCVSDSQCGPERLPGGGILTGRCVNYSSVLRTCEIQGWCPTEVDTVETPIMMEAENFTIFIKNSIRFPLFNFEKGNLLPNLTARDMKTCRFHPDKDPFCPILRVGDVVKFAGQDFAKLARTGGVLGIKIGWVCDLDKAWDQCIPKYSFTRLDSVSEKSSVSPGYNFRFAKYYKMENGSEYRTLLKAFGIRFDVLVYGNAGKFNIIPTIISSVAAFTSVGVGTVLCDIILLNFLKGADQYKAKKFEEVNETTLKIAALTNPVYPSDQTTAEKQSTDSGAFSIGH
Nature of the data set: In vitro bioactivity evaluation: FLIPR antagonist mode, HEK 293 cells stably transfected with human P2X3 receptor, BZATP agonist.

Another data set has as its system SD rats. Nature of the data set: Taste disorder test (quinine water versus tap water intake). Particulars: for effect on the taste sense: 10 mg/kg intravenously, quinine/tap water ratio compared with vehicle group; for Quinine/tap water (%): 10 mg/kg tail intravenous injection, 0-15 min after administration, 0.3 mM quinine hydrochloride water versus tap water. The class given is in vivo, rat. How it is done:
Compounds of Examples 1, 9, 12, 15, 16, 24 (synthesized in the laboratory of the present inventor), the positive control drug (gefapixant, batch No: 01030-210326-2-1, purchased from Holder Pharmaceuticals).
0.9% sodium chloride solution for injection, quinine hydrochloride (Quinie, batch No: C12476271)
Healthy adult SD rats, all males, weighing about 280-300 g.
Preparation of 0.3 mM quinine solution: 119.20 mg of quinine hydrochloride was weighed and dissolved in 1000 ml of tap water, and mixed evenly.
Preparation of the test sample solution: 40 mg of a test sample was dissolved in DMSO and a solution of the solubilizer HS-15 was added, mixed evenly, and 16 ml of saline was added to formulate a 2.5 mg/ml solution.
Animal and grouping: male SD rats weighed about 160-180 g each, with 10 of a similar average weight in each group, were housed in seperate cages.
Drinking habit training: each group was given normal drinking water for 30 minutes at 8:30 am and 16:30 pm every day, and no access of water for the rest of the day for 5 days, and two bottles of water were changed every day at the left and right positions.
Administration: with no access to water the night before the experiment, in the following morning the test group was given 4 mL/kg (10 mg/kg) of the test sample by tail intravenous injection, and the model group was given 4 mL/kg (10 mg/kg) of 0.5% HS-15 by intravenous injection.
The animals were allowed to drink freely for 15 min, and the amount of water consumed from the two bottles was measured to the nearest 0.1 ml.
(2) Statistical analysis of the data: the drinking volume of the quinine bitter water and tap water were recorded separately, as well as the percentage of quinine water to the tap water, and the significance of the difference between the groups was determined by ANOVA.

[1] abbreviates: 30 mg/kg by gavage, 30 min after administration, coughs within 3 min, ammonia-induced.
Setting [2] is: 3 mg/kg by gavage, 60 min after administration, coughs within 3 min.
Setting [3] is: 10 mg/kg by gavage, 60 min after administration, coughs within 3 min.
[4] abbreviates: 30 mg/kg by gavage, 60 min after administration, coughs within 3 min (Table 5).
The mark [5] stands for this setting: 30 mg/kg by gavage, 60 min after administration, coughs within 3 min (Table 6).
Setting [6] is: 30 mg/kg by gavage, 120 min after administration, coughs within 3 min.

SMILES strings stand for the structures. Marks after values point to notes of the source that are not given here.

Description for human P2X3 receptor: Cell culture medium: DMEM high glucose; 10% FBS; 1% PenStrep.
The Petri dish was placed in an incubator for 1-3 minutes or until the cells were digested, 3 mL of a complete medium was then added to terminate the digestion, and the cell density was determined by a cell counter. • 2) After centrifugation at 1000 rpm/min for 5 min, the cells were resuspended in a growth medium and the volume of the suspension was adjusted to reach a cell density of 4×10^5 cells/mL (1×10^4 cells/25 μL). • 3) 10 μL of 5× Matrigel was added into a black microplate, and the microplate was placed in an incubator for 15 min. The microplate was removed and invertedly centrifuged at 300 g/min for 30 s to remove the 5× Matrigel.

By IC50 is commonly meant the point on the concentration scale where inhibition reaches its midpoint. Read a low IC50 as greater potency in that assay. With `COC(=O)[C@@H](C)Cn1c(=O)cc(Nc2ccc(Oc3cnccn3)cc2)n(Cc2ccc(Cl)cc2)c1=O` [Compound 1], the “cough suppressing effect compared with the positive compound” value in the data set on KM mice (30 min after administration) is recorded as “stronger than that of the positive compound”. In the data set on KM mice (setting [1]), the “Number of Coughs (time)” value is listed as 15.33** time. For the same molecule, the IC50 at human P2X3 receptor was < 10 nM. Further, in the data set on SD rats, the “effect on the taste sense” value was “little or no effect on the taste sense” and the “Quinine/tap water (%)” value is given as 41.48%^Δ.

Regarding `C[C@@H](Cn1c(=O)cc(Nc2ccc(Oc3ccccn3)cc2)n(Cc2ccc(Cl)cc2)c1=O)C(=O)NS(C)(=O)=O` [Compound 9], the “reduction in the number of coughs at 3 mg/kg” value (“reduction in the number” below) with KM mice (60 min after administration) was “statistically significant (P<0.01) reduction in the number of coughs”. Further, the “cough suppressing efficacy at 10 mg/kg” value in the data set with KM mice (60 min after administration) is “improved cough suppressing efficacy than the positive control drug”. The “duration of the cough suppression action” value with KM mice is recorded as “significantly prolonged compared with that of the compound of Comparative Example 1”. In addition, the “cough suppressing effect compared with the positive compound” value with KM mice (30 min after administration) was “stronger than that of the positive compound”. Besides, the “Number of Coughs (time)” value in the data set with KM mice (setting [2]) is recorded as 25.37** time; in the data set with KM mice (setting [3]), 19.54**^Δ time; in the data set on KM mice (setting [1]), 13.62** time; in the data set with KM mice (setting [4]) it was 16.33** time; in the data set with KM mice (setting [5]) it was 16.33** time; in the data set on KM mice (setting [6]), 23.83**^Δ time. At human P2X3 receptor, this molecule registered a concentration for half-maximal inhibition (IC50) of 10.1 to 50 nM. Besides, in the data set with SD rats, the “effect on the taste sense” value was “little or no effect on the taste sense”. Also, the “Quinine/tap water (%)” value with SD rats was 39.84%^Δ.

Consider `CC(C)(Cn1c(=O)cc(Nc2ccc(Oc3ccccn3)cc2)n(Cc2ccc(Cl)cc2)c1=O)C(=O)NS(C)(=O)=O` [Compound 12], for which the “cough suppressing efficacy at 10 mg/kg” value with KM mice (60 min after administration) is reported as “improved cough suppressing efficacy than the positive control drug”. The “duration of the cough suppression action” value with KM mice is “significantly prolonged compared with that of the compound of Comparative Example 1”. Further, the “cough suppressing effect compared with the positive compound” value in the data set with KM mice (30 min after administration) was “stronger than that of the positive compound”. The “Number of Coughs (time)” value in the data set on KM mice (setting [2]) was 33.17 time; in the data set on KM mice (setting [3]), 21.17**^Δ time; in the data set with KM mice (setting [1]), 15.67** time; in the data set on KM mice (setting [4]) it was 17.17** time; with KM mice (setting [5]), 17.17** time; in the data set on KM mice (setting [6]), 20.17*^Δ time. On human P2X3 receptor, the IC50 is < 10 nM. Besides, in the data set with SD rats, the “effect on the taste sense” value is recorded as “little or no effect on the taste sense”. Besides, the “Quinine/tap water (%)” value in the data set on SD rats was 37.18%^Δ.

Take `CS(=O)(=O)NC(=O)C1(Cn2c(=O)cc(Nc3ccc(Oc4ccccn4)cc3)n(Cc3ccc(Cl)cc3)c2=O)CC1` [Compound 15]: in the data set with KM mice (60 min after administration), the “reduction in the number” value was “statistically significant (P<0.01) reduction in the number of coughs”. Also, the “cough suppressing efficacy at 10 mg/kg” value in the data set on KM mice (60 min after administration) was “improved cough suppressing efficacy than the positive control drug”. Moreover, the “duration of the cough suppression action” value in the data set on KM mice is “significantly prolonged compared with that of the compound of Comparative Example 1”. The “cough suppressing effect compared with the positive compound” value with KM mice (30 min after administration) was “stronger than that of the positive compound”. The “Number of Coughs (time)” value with KM mice (setting [2]) is reported as 24.83** time; with KM mice (setting [3]), 20.83**^Δ time; in the data set with KM mice (setting [1]), 18.64** time; in the data set on KM mice (setting [4]), 16.33** time; in the data set with KM mice (setting [5]), 16.33** time; in the data set on KM mice (setting [6]) it was 23.83**^Δ time. At human P2X3 receptor, the concentration for half-maximal inhibition (IC50) was 10.1 to 50 nM. Also, the “effect on the taste sense” value with SD rats is on record as “little or no effect on the taste sense”. In addition, in the data set with SD rats, the “Quinine/tap water (%)” value came out at 40.22%^Δ.

In the case of `C[C@@H](Cn1c(=O)cc(Nc2ccc(Oc3ncccc3F)cc2)n(Cc2ccc(Cl)cc2)c1=O)C(=O)NS(C)(=O)=O` [Compound 16, (S)-3-(3-(4-chlorobenzyl)-4-(4-(3-(3-fluoropyridin-2-yl)oxyphenyl)amino)-2,6-dioxo-3,6-dihydropyrimidin-1(2H)yl)-2-methyl-N-(methylsulfonyl)propionamide group], the “reduction in the number” value in the data set on KM mice (60 min after administration) is on record as “statistically significant (P<0.01) reduction in the number of coughs”. Besides, the “cough suppressing efficacy at 10 mg/kg” value in the data set with KM mice (60 min after administration) was “improved cough suppressing efficacy than the positive control drug”. For the same molecule, the “duration of the cough suppression action” value in the data set on KM mice is “significantly prolonged compared with that of the compound of Comparative Example 1”. Also, the “Number of Coughs (time)” value with KM mice (setting [2]) is listed as 23.81** time; in the data set on KM mice (setting [3]) it was 15.13**^Δ time; in the data set with KM mice (setting [1]), 19.34** time; in the data set on KM mice (setting [4]) it was 16.11** time; in the data set with KM mice (setting [5]) it was 16.11** time; in the data set with KM mice (setting [6]), 18.13**^Δ time. Moreover, the 50% inhibitory concentration (IC50) on human P2X3 receptor is < 10 nM. In addition, the “effect on the taste sense” value with SD rats is on record as “little or no effect on the taste sense”. Also, the “Quinine/tap water (%)” value in the data set with SD rats turned out to be 42.53%^Δ.

Regarding `C[C@@H](Cn1c(=O)cc(Nc2ccc(Oc3cccc(F)n3)cc2)n(Cc2ccc(Cl)cc2)c1=O)C(=O)NS(C)(=O)=O` [Compound 24], the “reduction in the number” value in the data set on KM mice (60 min after administration) is reported as “statistically significant (P<0.01) reduction in the number of coughs”. For the same molecule, the “cough suppressing efficacy at 10 mg/kg” value in the data set with KM mice (60 min after administration) was “improved cough suppressing efficacy than the positive control drug”. Further, in the data set with KM mice, the “duration of the cough suppression action” value is reported as “significantly prolonged compared with that of the compound of Comparative Example 1”. The “cough suppressing effect compared with the positive compound” value in the data set with KM mice (30 min after administration) is recorded as “stronger than that of the positive compound”. Further, the “Number of Coughs (time)” value in the data set with KM mice (setting [2]) is reported as 25.45** time; in the data set on KM mice (setting [3]) it was 24.14**^Δ time; with KM mice (setting [1]) it was 17.07** time; in the data set on KM mice (setting [4]), 21.33** time; with KM mice (setting [5]), 21.33** time; in the data set on KM mice (setting [6]), 25.14**^Δ time. Also, the concentration for half-maximal inhibition (IC50) at human P2X3 receptor is < 10 nM. The “effect on the taste sense” value in the data set with SD rats is on record as “little or no effect on the taste sense”. Further, in the data set with SD rats, the “Quinine/tap water (%)” value was 39.61%^Δ.
